# Starred links: 1 amine or outer side, 2 acyl side, 3 side chain; linkers in the order of their positions; H or OH if unused. Positions of bridges follow the written chain, without caps; N, C: chain ends. Non-standard residues stand in square brackets, D forms with d. Residues, ends and D or L forms follow the SMILES beside them. Chains are numbered I, II in the order given. Actinocin(9to1) = Cc1c2oc3c(C)ccc(C(=O)[*:1])c3nc-2c(C(=O)[*:2])c(N)c1=O; NMeV = CN[C@H](C(=O)O)C(C)C; Sar = CNCC(=O)O
# Assays:
# [1] = tested on: lymphocytic leukemia P388; assay: Antitumor activity against P388 leukemia (ip); type: in vivo, mice; settings: QD × 3, ip
# Procedure: (§1) BU-3292T components A and B were tested for in vitro cytotoxicity against murine and human tumor cells and for in vivo antitumor activity in mice. Actinomycin D was used as a reference compound in both in vitro and in vivo experiments. B16-F10 (murine melanoma) and Moser (human colorectal carcinoma) cells were grown to the logarithmic phase in enriched Eagle minimum essential medium (MEM) supplemented with fetal calf serum (FCS, 10%) and kanamycin (60 mcg/ml), harvested and inoculated into wells of a 96-well microtiter plate with test materials at the concentrations of 3.0×10^4 and 6.0×10^4 cells/ml, respectively. They were incubated at 37° C. in humidified atmosphere of 5% CO2 and 95% air for 72 hours. The cytotoxic activity was determined colorimetrically at 540 nm after staining viable cells with neutral red. […] Inhibitory effects of BU-3292T component A on macromolecule (DNA, RNA and protein) synthesis were determined in vitro. Cultured L1210 murine leukemia cells (5×10^5 cells/ml) were incubated with test materials at 37° C. for 15 minutes and then further incubated for 60 minutes after the addition of labelled precursor, ^3 H-thymidine, ^14 C-uridine or ^3 H-leucine, into the cultured mixtures. After washing with chilled 5% trichloroacetic acid solution, the radioactivity incorporated into the acid-insoluble fraction of the tumor cells was determined in a liquid scintillation counter. […] In vivo antitumor activities of BU-3292T components A and B were tested in tumor-bearing female CDF mice. After the intraperitoneal implantation of diluted ascitic fluid with 1.0 ×10^6 lymphocytic leukemia P388 cells into the mice, test compounds were administered intraperitoneally once a day on days 1, 2 and 3 (QD×3).
# [2] = tested on: Protein synthesis in L1210 leukemia cells; assay: Inhibition of macromolecule synthesis, 3H-leucine incorporation; type: cell-based, murine; settings: L1210 leukemia cells; 3H-leucine
# Procedure: as §1
# [3] = Body weight change in P388-bearing mice; settings: QD × 3, ip
# Procedure: as §1
# [4] = tested on: Clostridium perfringens A9635; type: cell-based; settings: GAM agar
# [5] = tested on: Propionibacterium acnes A21933; assay: Antimicrobial activity, serial two-fold agar dilution method; type: cell-based; settings: GAM agar
# Procedure: (§2) The antimicrobial activity of BU-3292T A and B was determined against aerobic and anaerobic bacteria and fungi by a serial two-fold agar dilution method. BU-3292T A and B are active against aerobic gram-positive bacteria, and weakly active against anaerobic gram-negative bacteria and fungi.
# [6] = tested on: Streptococcus faecalis A9612; assay: as above; type: cell-based; settings: Nutrient agar
# Procedure: as §2
# [7] = tested on: Clostridium difficile A21675; assay: as above; type: cell-based; settings: GAM agar
# Procedure: as §2
# [8] = tested on: Bacillus subtilis PCI-219; assay: as above; type: cell-based; settings: Nutrient agar
# Procedure: as §2
# [9] = tested on: Staphylococcus aureus 209P; assay: as above; type: cell-based; settings: Nutrient agar
# Procedure: as §2
# [10] = tested on: Proteus mirabilis A9554; assay: as above; type: cell-based; settings: Nutrient agar
# Procedure: as §2
# [11] = tested on: Bacteroides fragilis A22693; assay: as above; type: cell-based; settings: GAM agar
# Procedure: as §2
# [12] = tested on: Propionibacterium anaerobius A21905; assay: as above; type: cell-based; settings: GAM agar
# Procedure: as §2
# [13] = tested on: Streptococcus pyogenes A20201; assay: as above; type: cell-based; settings: Nutrient agar
# Procedure: as §2
# [14] = tested on: Staphylococcus epidermidis D153; assay: as above; type: cell-based; settings: Nutrient agar
# Procedure: as §2
# [15] = tested on: Trichophyton mentagrophytes D155; assay: as above; type: cell-based; settings: Sabouraud dextrose agar
# Procedure: as §2
# [16] = tested on: Klebsiella pneumoniae D11; assay: as above; type: cell-based; settings: Nutrient agar
# Procedure: as §2
# [17] = tested on: Aspergillus fumigatus IAM 2530; assay: as above; type: cell-based; settings: Sabouraud dextrose agar
# Procedure: as §2
# [18] = tested on: Proteus vulgalis A9436; assay: as above; type: cell-based; settings: Nutrient agar
# Procedure: as §2
# [19] = tested on: Candida albicans IAM 4888; assay: as above; type: cell-based; settings: Sabouraud dextrose agar
# Procedure: as §2
# [20] = tested on: Pseudomonas aeruginosa A9930; assay: as above; type: cell-based; settings: Nutrient agar
# Procedure: as §2
# [21] = tested on: Escherichia coli NIHJ; assay: as above; type: cell-based; settings: Nutrient agar
# Procedure: as §2
# [22] = tested on: Cryptococcus neoformans IAM 4519; assay: as above; type: cell-based; settings: Sabouraud dextrose agar
# Procedure: as §2
# [23] = tested on: Staphylococcus aureus smith; assay: as above; type: cell-based; settings: Nutrient agar
# Procedure: as §2
# [24] = tested on: Micrococcus luteus 1001; assay: as above; type: cell-based; settings: Nutrient agar
# Procedure: as §2
# [25] = tested on: Fusarium moniliforme A2284; assay: as above; type: cell-based; settings: Sabouraud dextrose agar
# Procedure: as §2
# [26] = tested on: Mucor spinosus IFO 5317; assay: as above; type: cell-based
# Procedure: as §2
# [27] = tested on: RNA synthesis in L1210 leukemia cells; assay: Inhibition of macromolecule synthesis, 14C-uridine incorporation; type: cell-based, murine; settings: L1210 leukemia cells; 14C-uridine
# Procedure: as §1
# [28] = tested on: B16-F10 (murine melanoma) cells; assay: In vitro cytotoxicity, neutral red staining; type: cell-based; settings: B16-F10; 72 hours
# Procedure: as §1
# [29] = tested on: Moser (human colorectal carcinoma) cells; assay: In vitro cytotoxicity, neutral red staining; type: cell-based; settings: 72 hours
# Procedure: as §1
# [30] = tested on: DNA synthesis in L1210 leukemia cells; assay: Inhibition of macromolecule synthesis, 3H-thymidine incorporation; type: cell-based, murine
# Procedure: BU-3292T components A and B were tested for in vitro cytotoxicity against murine and human tumor cells and for in vivo antitumor activity in mice. Actinomycin D was used as a reference compound in both in vitro and in vivo experiments. B16-F10 (murine melanoma) and Moser (human colorectal carcinoma) cells were grown to the logarithmic phase in enriched Eagle minimum essential medium (MEM) supplemented with fetal calf serum (FCS, 10%) and kanamycin (60 mcg/ml), harvested and inoculated into wells of a 96-well microtiter plate with test materials at the concentrations of 3.0×10^4 and 6.0×10^4 cells/ml, respectively. They were incubated at 37° C. in humidified atmosphere of 5% CO2 and 95% air for 72 hours. The cytotoxic activity was determined colorimetrically at 540 nm after staining viable cells with neutral red. […] Inhibitory effects of BU-3292T component A on macromolecule (DNA, RNA and protein) synthesis were determined in vitro. […] After washing with chilled 5% trichloroacetic acid solution, the radioactivity incorporated into the acid-insoluble fraction of the tumor cells was determined in a liquid scintillation counter. […]
smiles,measurement,setting,value
"Cc1c2oc3c(C)ccc(C(=O)N[C@@H]4C(=O)N[C@H](C(C)C)C(=O)N5CCC[C@H]5C(=O)N(C)CC(=O)N(C)[C@@H](C(C)C)C(=O)O[C@@H]4C)c3nc-2c(C(=O)N[C@@H]2C(=O)N[C@H](C(C)C)C(=O)N3CCC[C@H]3C(=O)N(C)CC(=O)N(C)[C@@H](C(C)C)C(=O)O[C@@H]2C)c(N)c1=O [Actinomycin D, reference compound] (I: T[dV]P[Sar][NMeV] / II: T[dV]P[Sar][NMeV]; ester I:1-I:C, II:1-II:C; linker I:N-II:N via Actinocin(9to1))",MST (Median survival time),[1]; 0.001 mg/kg/day,11.0 days
same,T/C,[1]; 0.001 mg/kg/day,110%
same,MST (Median survival time),[1]; 0.003 mg/kg/day,13.5 days
same,T/C,[1]; 0.003 mg/kg/day,135%
same,MST (Median survival time),[1]; 0.01 mg/kg/day,14.0 days
same,T/C,[1]; 0.01 mg/kg/day,140%
same,MST (Median survival time),[1]; 0.03 mg/kg/day,15.0 days
same,T/C,[1]; 0.03 mg/kg/day,150%
same,MST (Median survival time),[1]; 0.1 mg/kg/day,16.0 days
same,T/C,[1]; 0.1 mg/kg/day,160%
same,MST (Median survival time),[1]; 0.3 mg/kg/day,7.0 days
same,T/C,[1]; 0.3 mg/kg/day,70%
same,IC50 Protein,[2],> 100 µg/mL
same,Body weight change on day 4,[3]; 0.001 mg/kg/day,+1.3 g
same,Body weight change on day 4,[3]; 0.01 mg/kg/day,+1.3 g
same,Body weight change on day 4,[3]; 0.03 mg/kg/day,+0.5 g
same,Body weight change on day 4,[3]; 0.1 mg/kg/day,-2.0 g
same,Body weight change on day 4,[3]; 0.3 mg/kg/day,-3.5 g
same,MIC,[4],6.3 µg/mL
same,MIC,[5],6.3 µg/mL
same,MIC,[6],0.1 µg/mL
same,MIC,[7],25 µg/mL
same,MIC,[8],0.2 µg/mL
same,MIC,[9],0.4 µg/mL
same,MIC,[10],> 100 µg/mL
same,MIC,[11],> 100 µg/mL
same,MIC,[12],1.6 µg/mL
same,MIC,[13],0.2 µg/mL
same,MIC,[14],0.4 µg/mL
same,MIC,[15],> 100 µg/mL
same,MIC,[16],25 µg/mL
same,MIC,[17],> 100 µg/mL
same,MIC,[18],> 100 µg/mL
same,MIC,[19],> 100 µg/mL
same,MIC,[20],100 µg/mL
same,MIC,[21],> 100 µg/mL
same,MIC,[22],> 100 µg/mL
same,MIC,[23],0.4 µg/mL
same,MIC,[24],0.2 µg/mL
same,MIC,[25],> 100 µg/mL
same,MIC,"[26]; Mucor spinosus IFO 5317, Sabouraud dextrose agar",> 100 µg/mL
same,MIC,[26]; in vitro against Mucor spinosus IF05317,> 100 µg/mL
same,IC50 RNA,[27],0.17 µg/mL
same,IC50,[28],0.002 µg/mL
same,IC50,[29],0.9 µg/mL
same,IC50 DNA,[30],8.1 µg/mL

# From patent US5114920A, “BU-3292T antibiotics” (priority 1988, dated 1992)
